The values below come from patent publication US12145948B2, “Compounds and methods for modulating HER2” (IAMBIC THERAPEUTICS, INC., priority 2022, dated 2024).

In experiment [1] the target is T1, ERBB2-A775_G776insYVMA (ERBB2YVMA) (Homo sapiens, UniProt P04626, INS775YVMA).
T1 construct: purchased SignalChem E27-13BG
Description: HotSpot radiometric kinase activity assay, ERBB2YVMA. The conditions noted are these: biochemical activity, read-out: HER2-YVMA IC50. How it is done:
The purpose of the wtERBB2, ERBB2-A775_G776insYVMA (ERBB2YVMA), wtEGFR biochemical assay was to evaluate the inhibition (% inhibition and IC50 values) of the small molecule inhibitors by using the “HotSpot” radiometric kinase activity assay. HotSpot assays monitor the […] of kinase substrate by the radioactive gamma phosphate of adenosine triphosphate (33P-ATP) during biochemical reactions. HotSpot assays was performed in steps upon completion of the kinase reaction: deposition of a reaction mixture aliquot onto P81 ion exchange paper, extensive washing of the aforementioned P81 paper using phosphoric acid to remove unbound radiolabeled 33P-ATP from the P81 paper, and finally visualization and quantification of the dried P81 paper utilizing a phosphoimager. […] Typical reaction solutions (10 μL final reaction volume) contained the following buffer conditions: 20 mM Hepes (pH 7.5), 10 mM MgCl2, 1 mM EGTA, 0.01% Brij35, 0.02 mg/mL BSA, 0.1 mM Na3VO4, 2 mM DTT, 1% DMSO. The assay was primed by preparing a fresh 0.2 mg/mL solution of pEY (Sigma Cat: P7244) substrate in the reaction buffer and supplementing that solution with […] of MnCl2 as substrate cofactor (Sigma Cat: M9522). The kinase of interest was then added to the solution at the appropriate concentration (30 nM wtERBB2 from, or 20 nM ERBB2YVMA, or 4 nM wtEGFR) and gently mixed prior to delivery of compound in 100% DMSO by acoustic dispensing (Beckman Echo550). Compound, Kinase, and substrate were allowed to incubate for 20 min at room temperature prior to the initiation of the reaction by addition of 33P-ATP (PerkinElmer Cat: NEG602, final conc 10 μM). […] IC50 determinations were made from a plot of kinase activity as a function of inhibitor concentration fit to the 4-parameter IC50 equation with the enzyme concentration held constant using GraphPad Prism (San Diego).

The target in experiment [2] is BaF3_EGFRWT cells (Homo sapiens, UniProt P00533). Description: Cell growth inhibition assay (CellTiterGlo, 3 days), BaF3_EGFRWT. The format is cell-based. Particulars: read-out: EGFR WT IC50. (ATP-based viability assays read luminescence as a measure of living cells.)
Chain of BaF3_EGFRWT cells (P00533 whole entry, change not shown): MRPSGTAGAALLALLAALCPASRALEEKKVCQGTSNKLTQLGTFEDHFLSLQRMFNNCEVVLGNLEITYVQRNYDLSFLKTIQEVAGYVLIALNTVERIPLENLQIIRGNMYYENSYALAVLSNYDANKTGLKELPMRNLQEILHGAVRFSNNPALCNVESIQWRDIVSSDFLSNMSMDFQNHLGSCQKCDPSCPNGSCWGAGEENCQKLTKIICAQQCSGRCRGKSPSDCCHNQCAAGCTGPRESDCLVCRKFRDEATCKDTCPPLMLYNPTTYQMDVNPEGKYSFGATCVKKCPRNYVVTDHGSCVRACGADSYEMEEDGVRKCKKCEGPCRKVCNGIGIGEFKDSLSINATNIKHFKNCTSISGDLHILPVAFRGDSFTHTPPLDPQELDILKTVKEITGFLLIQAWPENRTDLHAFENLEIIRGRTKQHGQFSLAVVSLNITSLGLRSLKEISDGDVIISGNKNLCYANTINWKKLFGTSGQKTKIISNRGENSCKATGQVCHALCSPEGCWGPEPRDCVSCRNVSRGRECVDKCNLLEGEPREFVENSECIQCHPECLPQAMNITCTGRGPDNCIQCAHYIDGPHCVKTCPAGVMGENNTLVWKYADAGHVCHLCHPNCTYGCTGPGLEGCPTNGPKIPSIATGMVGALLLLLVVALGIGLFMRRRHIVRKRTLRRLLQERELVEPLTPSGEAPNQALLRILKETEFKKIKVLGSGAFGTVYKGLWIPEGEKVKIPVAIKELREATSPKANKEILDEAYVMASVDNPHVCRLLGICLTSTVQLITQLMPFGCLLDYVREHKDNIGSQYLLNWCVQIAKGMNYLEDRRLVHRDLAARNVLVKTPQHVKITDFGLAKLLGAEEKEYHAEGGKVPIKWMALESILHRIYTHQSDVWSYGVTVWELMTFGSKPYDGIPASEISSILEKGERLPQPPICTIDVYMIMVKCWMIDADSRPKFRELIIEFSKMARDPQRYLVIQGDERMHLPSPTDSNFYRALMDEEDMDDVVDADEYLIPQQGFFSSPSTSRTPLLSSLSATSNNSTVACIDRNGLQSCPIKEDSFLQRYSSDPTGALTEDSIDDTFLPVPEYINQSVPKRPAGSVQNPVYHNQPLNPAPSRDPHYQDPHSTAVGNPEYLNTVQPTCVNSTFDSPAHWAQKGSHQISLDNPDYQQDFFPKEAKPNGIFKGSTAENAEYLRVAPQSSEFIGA
Experiment [3] addresses BaF3_HER2WT cells (Homo sapiens, UniProt P04626). The experiment can be described thus: Cell growth inhibition assay (CellTiterGlo, 3 days), BaF3_HER2WT. It counts as cell-based. Particulars: read-out: HER2 WT IC50.
Experiment [4] has as its target BaF3-HER2YVMA cells (Homo sapiens, UniProt P04626, DUP772-775, cells depend on it). Description: Cell growth inhibition assay (CellTiterGlo, 3 days), BaF3-HER2YVMA. The format is cell-based. The conditions noted are these: BaF3_HER2YVMA cells, read-out: HER2-YVMA IC50.

As usually defined, the IC50 is the concentration at which inhibition is half-maximal.

T1 sequence (P04626 with tags, fused parts or gaps INS775YVMA limits assumed): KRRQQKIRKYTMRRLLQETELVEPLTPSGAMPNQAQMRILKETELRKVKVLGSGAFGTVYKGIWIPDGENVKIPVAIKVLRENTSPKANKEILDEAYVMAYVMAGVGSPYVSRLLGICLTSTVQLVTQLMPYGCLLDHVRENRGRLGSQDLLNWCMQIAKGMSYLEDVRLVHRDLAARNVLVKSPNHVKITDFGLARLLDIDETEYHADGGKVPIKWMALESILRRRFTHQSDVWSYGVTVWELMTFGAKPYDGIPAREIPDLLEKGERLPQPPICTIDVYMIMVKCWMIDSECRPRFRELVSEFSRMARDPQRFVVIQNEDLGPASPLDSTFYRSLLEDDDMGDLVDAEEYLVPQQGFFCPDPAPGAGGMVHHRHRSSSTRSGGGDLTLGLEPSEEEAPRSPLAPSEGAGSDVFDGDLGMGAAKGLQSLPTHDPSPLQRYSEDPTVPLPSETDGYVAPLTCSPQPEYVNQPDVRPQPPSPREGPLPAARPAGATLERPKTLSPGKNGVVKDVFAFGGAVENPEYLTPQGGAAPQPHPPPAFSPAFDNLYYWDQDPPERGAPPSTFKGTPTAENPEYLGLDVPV
Chain of BaF3_HER2WT cells (P04626 whole entry, change not shown): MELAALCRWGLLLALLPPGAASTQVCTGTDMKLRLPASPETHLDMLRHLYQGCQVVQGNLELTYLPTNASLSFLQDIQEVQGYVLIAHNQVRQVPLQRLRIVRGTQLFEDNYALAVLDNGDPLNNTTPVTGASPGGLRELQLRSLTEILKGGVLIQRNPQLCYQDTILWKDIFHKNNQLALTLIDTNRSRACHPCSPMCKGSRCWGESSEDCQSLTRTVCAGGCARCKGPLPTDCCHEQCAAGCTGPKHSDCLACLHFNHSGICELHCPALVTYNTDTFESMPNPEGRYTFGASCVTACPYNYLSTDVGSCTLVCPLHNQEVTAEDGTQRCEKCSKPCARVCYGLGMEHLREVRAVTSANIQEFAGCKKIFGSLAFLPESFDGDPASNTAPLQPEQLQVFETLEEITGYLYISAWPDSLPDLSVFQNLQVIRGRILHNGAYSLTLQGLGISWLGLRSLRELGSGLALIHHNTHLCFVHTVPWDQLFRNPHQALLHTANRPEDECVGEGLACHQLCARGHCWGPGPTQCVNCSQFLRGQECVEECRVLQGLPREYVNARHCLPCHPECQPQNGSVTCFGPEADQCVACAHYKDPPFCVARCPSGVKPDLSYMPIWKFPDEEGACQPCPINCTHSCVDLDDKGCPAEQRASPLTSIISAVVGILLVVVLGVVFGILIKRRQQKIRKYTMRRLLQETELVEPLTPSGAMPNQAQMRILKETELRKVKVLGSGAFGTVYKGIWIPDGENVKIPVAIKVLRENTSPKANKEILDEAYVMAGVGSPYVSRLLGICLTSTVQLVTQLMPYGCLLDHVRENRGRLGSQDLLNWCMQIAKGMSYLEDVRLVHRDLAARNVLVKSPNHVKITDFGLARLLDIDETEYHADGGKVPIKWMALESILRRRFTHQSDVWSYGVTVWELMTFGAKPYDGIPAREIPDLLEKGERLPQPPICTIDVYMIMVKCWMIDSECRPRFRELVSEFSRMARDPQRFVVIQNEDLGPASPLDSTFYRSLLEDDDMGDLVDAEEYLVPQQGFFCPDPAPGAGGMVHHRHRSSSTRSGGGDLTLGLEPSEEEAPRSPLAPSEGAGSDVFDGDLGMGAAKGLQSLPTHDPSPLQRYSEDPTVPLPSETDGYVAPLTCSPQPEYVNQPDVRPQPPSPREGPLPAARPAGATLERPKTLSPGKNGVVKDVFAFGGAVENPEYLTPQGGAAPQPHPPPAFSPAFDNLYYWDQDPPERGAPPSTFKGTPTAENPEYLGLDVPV
Chain of BaF3-HER2YVMA cells (P04626 with tags, fused parts or gaps DUP772-775): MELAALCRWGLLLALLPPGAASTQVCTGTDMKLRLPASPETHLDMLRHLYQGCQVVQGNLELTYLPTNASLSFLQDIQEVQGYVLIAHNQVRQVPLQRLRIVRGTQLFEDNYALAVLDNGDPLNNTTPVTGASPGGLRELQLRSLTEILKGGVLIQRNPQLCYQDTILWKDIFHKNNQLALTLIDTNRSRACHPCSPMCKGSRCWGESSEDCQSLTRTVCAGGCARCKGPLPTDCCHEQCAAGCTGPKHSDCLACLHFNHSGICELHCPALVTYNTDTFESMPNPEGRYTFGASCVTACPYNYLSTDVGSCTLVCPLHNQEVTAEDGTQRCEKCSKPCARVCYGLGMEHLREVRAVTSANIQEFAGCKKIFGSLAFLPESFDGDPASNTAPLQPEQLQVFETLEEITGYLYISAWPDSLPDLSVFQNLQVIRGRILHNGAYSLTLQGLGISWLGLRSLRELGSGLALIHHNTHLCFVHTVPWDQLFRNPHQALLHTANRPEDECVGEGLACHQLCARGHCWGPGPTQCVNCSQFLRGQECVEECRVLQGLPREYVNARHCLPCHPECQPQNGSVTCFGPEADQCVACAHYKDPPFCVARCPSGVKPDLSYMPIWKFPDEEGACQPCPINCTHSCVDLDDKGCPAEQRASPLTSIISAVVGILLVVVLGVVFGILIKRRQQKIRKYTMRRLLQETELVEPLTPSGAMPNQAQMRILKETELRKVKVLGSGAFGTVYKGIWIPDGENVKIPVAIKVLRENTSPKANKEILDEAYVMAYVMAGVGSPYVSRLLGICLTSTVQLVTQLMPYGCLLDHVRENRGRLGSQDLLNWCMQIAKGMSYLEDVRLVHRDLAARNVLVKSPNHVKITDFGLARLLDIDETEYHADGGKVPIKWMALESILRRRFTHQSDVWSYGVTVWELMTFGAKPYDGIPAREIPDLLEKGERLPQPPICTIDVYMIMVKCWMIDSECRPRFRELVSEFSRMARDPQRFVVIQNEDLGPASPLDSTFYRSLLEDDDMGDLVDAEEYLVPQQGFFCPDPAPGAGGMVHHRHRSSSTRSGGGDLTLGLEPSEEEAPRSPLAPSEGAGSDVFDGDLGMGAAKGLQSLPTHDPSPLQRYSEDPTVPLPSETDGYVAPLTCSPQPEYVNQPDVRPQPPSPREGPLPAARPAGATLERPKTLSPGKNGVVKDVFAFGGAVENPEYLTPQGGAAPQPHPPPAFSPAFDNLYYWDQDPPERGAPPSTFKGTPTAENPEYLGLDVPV

For `Cc1cc(Nc2ncnn3ccc([C@H]4CCN(C(=O)/C=C/CN(C)C)C4)c23)ccc1Oc1ccn2ncnc2c1` (single isomer, unassigned) [Example 100], the IC50 in experiment [1] is below 200 nM. On to `Cc1cc(Nc2ncnn3ccc([C@H]4CCCN(C(=O)/C=C/CN(C)C)C4)c23)ccc1Oc1ccn2ncnc2c1` (single isomer, unassigned) [Example 108], for which, in experiment [1], the IC50 is below 200 nM.

With `Cc1cc(Nc2ncnn3ccc([C@H]4CCCN(C(=O)/C=C/CN(C)C)CC4)c23)ccc1Oc1ccn2ncnc2c1` (single isomer, unassigned) [Example 110], the IC50 in experiment [1] was below 200 nM. Take `Cc1cc(Nc2ncnn3ccc(C4CCN(C(=O)[C@@H](F)Cl)CC4)c23)ccc1Oc1ccn2ncnc2c1` (single isomer, unassigned) [second eluting isomer of Examples 173 and 174]: the values for the GI50 in experiment [2], in experiment [3] and in experiment [4] were 1500 to 5000 nM, below 200 nM and below 200 nM, respectively. As for `Cc1cc(Nc2ncnn3ccc(C4CC5CCC4CN5C(=O)/C=C/CN(C)C)c23)ccc1Oc1ccn2ncnc2c1` (single isomer, unassigned; first eluting) [first eluting isomer of Examples 137 and 138], the GI50 in experiment [3] was below 200 nM. With `C=C(CN(C)C)C(=O)N1C2C=C(c3ccn4ncnc(Nc5ccc(Oc6ccn7ncnc7c6)c(C)c5)c34)CC1CC2` (stereo not shown) [Example 30, 1-(3-(4-((4-([1,2,4]triazolo[1,5-a]pyridin-7-yloxy)-3-methylphenyl)amino)pyrrolo[2,1-f][1,2,4]triazin-5-yl)-8-azabicyclo[3.2.1]oct-2-en-8-yl)-2-((dimethylamino)methyl) prop-2-en-1-one acetate], the GI50 in experiment [2] is 1500 to 5000 nM; in experiment [3], below 200 nM; in experiment [4] it was below 200 nM.
